What was measured:
Type in all cases: in vivo, C57BL/6 mice
[1] = test system: tissue-resident memory T cells (TRM cells); test: LPX-mRNA vaccination of mice i.v.; antigen-specific TRM, TEM and TCM cells in liver and spleen by flow cytometry; conditions: agonist in LPX-mOVA vaccine, OT-I transfer, liver 30 days later; for proportion of liver TRM among all vaccine-induced antigen-specific T cells (TRM cell-inducing capability): relative to α-GalCer vaccine
liver TRM cells = test: LNP-mRNA vaccines, prime and boost; TRM cells in liver and spleen; conditions: i.m. and i.v.
Procedure: Vaccines were prepared with mRNA encoding OVA encapsulated in LNPs (LNP-mOVA-CI058). Groups of mice (n=5) were vaccinated twice, with an interval of either two weeks, or eight weeks, and then liver and spleen were collected for analysis of T cell responses 28 days after the last dose. (A) Percentages of antigen-specific TRM cells, TEM cells and TCM cells are shown for liver. Black bars: TRM cells; white bars: TEM cells; grey bars: TCM cells. (B) Percentages of antigen-specific TRM cells, TEM cells and TCM cells are shown for spleen. Black bars: TRM cells; white bars: TEM cells; grey bars: TCM cells. (C) Mean number of TRM cells in liver for each treatment group (±SEM); dots represent individual mice. *P<0.05.
Vaccines were prepared with mRNA encoding OVA encapsulated in LNPs (LNP-mOVA-CI536). Groups (n=9-10) of naïve C57BL/6 mice (i.e., no OT-I transfer) were vaccinated once, or twice with an interval of two weeks, with the liver and spleen collected for analysis of T cell responses 28 days after the last dose. (A) Numbers of antigen-specific TRM cells for liver. […] Data were log transformed and analysed by One-way ANOVA with Tukey's post test **P<0.01, ***P<0.001, ****P<0.0001. […]
LNP-mRNA vaccines comprising an ionizable lipid are an established formulation strategy to deliver mRNA vaccines safely and effectively. Therefore, the capacity of LNP-mRNA vaccines containing CI536 and the ionizable lipid DLin-MC3-DMA to stimulate liver TRM was evaluated. […] The memory T cell responses were assessed 28 days after the prime and boost so the impact of the second dose could be assessed. […]
Lymphocytes were stained with monoclonal antibodies for: CD8a (53-6.7), Ly5.1 (A20), CD44 (IM7), CXCR6 (SA051D1), CX3CR1 (SA011F11), from BioLegend (Australian Biosearch, Karrinyup, WA. Australia), and CD62L (MEL-14) and CD69 (H1.2F3), from eBioscience (Jomar Life Research, Scoresby, VIC, Australia). […] Single-color positive control samples were used to adjust compensation and cells were analyzed by flow cytometry on a LSR Fortessa (BD Biosciences), or LSRII SORP using Flowjo software (Tree Star Inc.).

[2] = test system: tissue-resident memory T cells (TRM cells); test: LPX-mRNA vaccination of mice i.v.; antigen-specific TRM, TEM and TCM cells in liver and spleen by flow cytometry; conditions: LPX-mOVA vaccines i.v., OT-I cell transfer, 28 days after vaccination
Procedure: FIG. 1 provides a graphical representation showing that LPX-mRNA vaccines containing CI058 induce high levels of liver TRM cells. Liposomes were prepared with DOTMA and DOPE lipids and complexed with mRNA encoding chicken ovalbumin (OVA) to give vaccine LPX-mOVA. Additional vaccines were prepared by including either the prototypical NKT cell agonist α-GalCer (LPX-mOVA-α-GalCer) or the derivative CI058, which has BODIPY attached via an —S in the 6 position of the galactose (LPX-mOVA-CI058). Recipient C57BL/6 mice were transferred 50,000 naïve OVA-specific TCR-transgenic CD8+ T cells (OT-I cells) to enhance the precursor frequency of antigen-specific T cells to aid detection of vaccine-induced responses. A day later, groups of mice (n=5-6) were vaccinated intravenously (0.08 nmol) with the different vaccines; a naive mouse was left untreated. After 28 days, mice were killed and liver and spleen collected for analysis of induced T cell response by flow cytometry. Antigen-specific cells were identified using fluorescent MHC/peptide tetramers containing the targeted CD8^+ T cell epitope recognised by OT-I cells, and expression of Ly5.1, a congenic marker expressed by the OT-I mouse strain and not recipient C57BL/6 mice. The antigen-specific cells were further characterised as resident-memory T cells (TRM cells; CD8^+ Ly5.1^+ […] CD62L^low cells), effector memory T cells (TEM cells; CD8^+ Ly5.1^+ CD44^+ CD69^− CD62L^low cells) or central memory cells (TCM cells; CD8^+ Ly5.1^+ CD44^+ CD69^− CD62Lhigh cells). (A) Percentages of TRM, TEM and TCM OT-I cells in each treatment group in liver. Mean±SEM for each T cell subset are shown; statistical analysis relates only to pairwise comparisons of the percentage of TRM cells between the treatment groups. Black bars: TRM cells; white bars: TEM cells; grey bars: TCM cells. *P<0.05, **P<0.01, ***P<0.001, ****P<0.0001. One-way ANOVA. (B) Percentages of RM, TEM and TCM OT-I cells in each treatment group in spleen. (C) Mean number of TRM cells in liver for each treatment group (±SEM); dots represent individual mice. Black bars: TRM cells; white bars: TEM cells; grey bars: TCM cells. *P<0.05, **P<0.01, ***P<0.001, ****P<0.0001. One-way ANOVA.
Dose response of LPX-mOVA-α-GalCer versus LPX-mOVA-CI058 vaccines. Analysis was in C57BL/6 mice, without transfer of OT-I cells, so endogenous T cell responses were monitored on a normal T cell repertoire. Groups of 5 mice were used, and vaccines were administered intravenously. After 28 days, mice were killed and liver tissue collected for analysis of induced T cell response by flow cytometry. Antigen-specific cells were identified using fluorescent MHC/peptide tetramers, and further characterised as resident-memory T cells (TRM CD8^+ CD44^+ CD69^+ CXCR6^+ CD49a^+ CD62L^low cells), effector memory T cells (TEM CD8^+ CD44^+ CD69^− KLRG1^+ CXCR3^+ CD62L^low cells) or central memory cells (TCM CD8^+ CD44^+ CD69^− CD62L^high cells). At the same timer, NKT cells in the liver were also evaluated using fluorescent CD1d/α-GalCer tetramers. These were characterised for expression of different markers of activation, including PD-1 (only the latter is shown here). White circles: LPX-mOVA-α-GalCer; black circles: LPX-mOVA-CI058. (A) Graph showing mean number of TRM cells in liver for each treatment group (±SEM) overdose range. ****P<0.0001. (B) Graph showing mean level of expression of the “invariant” NKT cell-associated TCR for each treatment group (±SEM), defined as level of binding of fluorescent CD1d/α-GalCer tetramers and expressed as mean fluorescence index. ****P<0.0001 (C) Graph showing mean level of expression of PD-1 on NKT cells for each treatment group (±SEM). **P<0.01
To examine whether a prodrug mechanism is involved in enhanced TRM cell induction, LPX-mOVA-CI058 vaccines were compared to vaccines containing different NKT cell agonist prodrugs. […]

SMILES | overall TRM cell accumulation in the liver [1] | proportion of liver TRM among all vaccine-induced antigen-specific T cells (TRM cell-inducing capability) [1] | further results
CCCCCCCCCCCCCCCCCCCCCCCCCC(=O)N[C@@H](CO[C@H]1OC(CSCCCCCNC(=O)CCC2=C3C(C)=CC(C)=[N+]3[B-](F)(F)n3c(C)cc(C)c32)[C@H](O)C(O)[C@@H]1O)[C@H](O)[C@H](O)CCCCCCCCCCCCCC (stereo partly drawn) [CI534] | All but two of the 6'S-substituted agonists (CI534, CI540) | significantly enhanced relative to vaccines with α-GalCer | 
CCCCCCCCCCCCCCCCCCCCCCCCCC(=O)N[C@@H](CO[C@H]1O[C@H](CSCC(N)=O)[C@H](O)[C@H](O)[C@H]1O)[C@H](O)[C@H](O)CCCCCCCCCCCCCC [CI536, (2S,3S,4R)-1-(6-Deoxy-6-((2-amino-2-oxoethyl)thio)-α-D-galactopyranosyloxy)-2-hexacosanoylamino-3,4-octadecandiol] |  |  | proportion of TEM in the spleen (liver TRM cells; LNP with DLin-MC3-DMA, 28 days): higher proportion of TEM; proportion of TRM in liver compared to spleen (liver TRM cells; LNP with DLin-MC3-DMA, prime or prime-boost, no T cell transfer, 28 days): increased proportion of liver TRM in the liver as compared to the spleen; number of liver TRM (liver TRM cells; boosted groups, two-week interval, vs PBS control): highest number of liver TRM compared to PBS control group
CCCCCCCCCCCCCCCCCCCCCCCCCC(=O)N[C@@H](CO[C@H]1OC(CSCCCCCNC(=O)OCc2c3ccccc3cc3ccccc23)[C@H](O)C(O)[C@@H]1O)[C@H](O)[C@H](O)CCCCCCCCCCCCCC (stereo partly drawn) [CI540] | All but two of the 6'S-substituted agonists (CI534, CI540) |  | 
CCCCCCCCCCCCCCCCCCCCCCCCCC(=O)N[C@@H](CO[C@H]1OC(CN)[C@H](O)C(O)C1O)[C@H](O)[C@H](O)CCCCCCCCCCCCCC (stereo partly drawn) [CN168] |  | significantly enhanced relative to vaccines with α-GalCer | 
CCCCCCCCCCCCCCCCCCCCCCCCCC(=O)N[C@@H](CO[C@H]1O[C@H](CS)[C@H](O)[C@H](O)[C@H]1O)[C@H](O)[C@H](O)CCCCCCCCCCCCCC [CN237] |  | significantly enhanced relative to vaccines with α-GalCer | 
CCCCCCCCCCCCCCCCCCCCCCCCCC(=O)N[C@@H](CO[C@H]1O[C@H](CO)[C@H](O)[C@H](O)[C@H]1O)[C@H](O)[C@H](O)CCCCCCCCCCCCCC [α-GalCer, reference compound] |  |  | proportion of TRM cells among antigen-specific T cells in liver and spleen [2]: low proportions of TRM cells in liver and spleen
